Measured values: paper PMC6259611, “Comparative Anti-Infectious Bronchitis Virus (IBV) Activity of (-)-Pinene: Effect on Nucleocapsid (N) Protein” (Molecules, 2011)
Values joined by “and” are separate entries in the source; they are usually repeats but may differ in a detail not shown here. Equal values may be shown once.

Columns and labels:
[1] = in vitro; settings: African green monkey
Experimental: (§1) Vero-E6 (African green monkey kidney cells) was purchased from Harbin Veterinary Research Institute (Harbin, P. R. China). The cells were grown in monolayer culture with Dulbecco’s modified Eagle’s medium (DMEM) supplemented with 10% fetal calf serum (FCS), 100 U/mL penicillin and 100 μg/mL streptomycin. The monolayers were removed from their plastic surfaces and serially passaged whenever they became confluent. Cells were plated out onto 96-well culture plates for cytotoxicity and anti-IBV assays, and propagated at 37 °C in an atmosphere of 5 % CO2.
(§2) The supernatants were discarded, washed with PBS twice and MTT reagent (5 mg/mL in PBS) was added to each well, after incubated at 37 °C for 4 h, remove the supernatants, then 200 μL DMSO was added and incubated at 37 °C for another 30 min. After that the plates were read on an ELISA reader (Thermo Molecular Devices Co., Union City, USA) at 570/630 nm. The mean OD of the cell control wells was assigned a value of 100%. The maximal non-toxic concentration (TD0) and 50% cytotoxic concentration (CC50) were calculated by linear regression analysis of the dose-response curves generated from the data.

[2] = system: IBV (Gray strain); assay: Anti-IBV activity (inhibition of virus replication, MTT method); assay type: cell-based, Infectious bronchitis virus; settings: Avian coronavirus, Vero, 72 h
Experimental: The IBV Gray strain was purchased from National Control Institute of Veterinatory Bioproducts and Pharmaceuticals (Beijing, P. R. China). Virus was routinely grown on Vero-E6 cells. IBV-Gray stock cultures were prepared from supernatants of infected cells and stored at −80 °C.
Inhibition of virus replication was measured by MTT method. Serial dilution of the treated virus was adsorbed to the cells for 1 h at 37 °C. The residual inoculum was discared and infected cells were added with DMEM containing 2% FCS. Each assay was performed in eight replicates. After incubation for 72 h at 37 °C, the cultures were measured by MTT method as described above.

[3] = system: IBV (Gray strain)
Experimental: The compound was aspirated and cells were washed immediately before the IBV inoculum was added. […] For analyzing the anti-IBV inhibition during the adsorption period, the same amount of IBV was mixed with the drug and added to the cells immediately. After 1h of adsorption at 37 °C, the inoculum was removed and DMEM supplemented with 2% FCS were added to the cells. […] Each assay was run in eight replicates. Ribavirin was used as a positive control.

[4] = system: Vero-E6 cells; assay: in vitro; settings: Vero cells, 72 h, MTT
Experimental: as §1, §2

Compound: CC1=CCC2CC1C2(C)C (stereo not drawn) [(-)-α-pinene]
- CC50 at 72 h [1]: > 10 mM
- IC50 [2]: 980 ± 250 µM
- inhibition [3]: 87% and 67.6%

Compound: C=C1CCC2CC1C2(C)C (stereo not drawn) [(-)-β-pinene]
- CC50 at 72 h [1]: > 10 mM
- TD0 (maximum noncytotoxic concentration) [4]: 6.09 ± 0.31 mM
- IC50 [2]: 1320 ± 110 µM
- inhibition [3]: 81% and 55.4%

Compound: NC(=O)c1ncn([C@@H]2O[C@H](CO)[C@@H](O)[C@H]2O)n1 [Ribavirin, ribavirin, reference compound]
- CC50 at 72 h [1]: > 1 mM
- IC50 [2]: 118 ± 20 µM
- inhibition [3]: 90.2 ± 2.8%
